According to patent US8034768B2, “Composition and method for the treatment of diseases affected by histone deacetylase inhibitors” (Board of Regents, The University of Texas System, priority 2007, dated 2011):
Starred links: 1 amine or outer side, 2 acyl side, 3 side chain; linkers in the order of their positions; H or OH if unused. Positions of bridges follow the written chain, without caps; N, C: chain ends. Non-standard residues stand in square brackets, D forms with d. Residues, ends and D or L forms follow the SMILES beside them. 1Nal = N[C@@H](Cc1cccc2ccccc12)C(=O)O; 2Nal = N[C@@H](Cc1ccc2ccccc2c1)C(=O)O; Cysteamide = C(CS[*:3])N[*:1]

Columns and labels:
[1] = test system: 3 prostate and 3 bladder cancer cells; assay: MTT cell proliferation assay on a variety of cancer cells (FIG. 10); assay type: cell-based, human
Experimental: (§1) To evaluate anti-tumoral activity of the modified FK228 analogues, human transitional carcinoma cell lines T24, TCCSUP, 253J and human prostate cancer cell lines PC-3, LNCaP, Du-145 were cultured in T medium (Invitrogen) supplemented with 5% fetal bovine serum and 1% penicillin-streptomycin. 2×10^3 Cells in 50 μL of medium were plated into each well of a 96-well plate one day before adding compound. Each compound was diluted with DMSO to two folds of the concentrations, then 50 μL of the compound-containing medium was added into cells. Each treatment was in triplicate. Three days later, cell proliferation was measured with a cell proliferation kit (Roche). Briefly, 10 μL of MTT (3-[4,5-dimethylthiazol-2-yl]-2,5-diphenyl tetrazolium bromide) was added into each well for 4 hours, then 100 μL of the solubilization solution was added and cells were incubated for overnight. The spectrophotometrical absorbance of the samples was measured with a SpectraMax M5 plate reader (Molecular Devices) at 565 nm. The data were presented as percentage inhibition using non-treated cells as control.
FIGS. 9-11 are graphs showing dose-dependent growth inhibition of cancer cells (prostate and bladder cancers) by modified FK228 analogues. […] FIG. 10 includes the general structure in FIG. 10A including R groups. […]

prostate cancer cells = assay type: cell-based, human
Experimental: as §1
FIGS. 9-11 are graphs showing dose-dependent growth inhibition of cancer cells (prostate and bladder cancers) by modified FK228 analogues. […] FIG. 10 includes the general structure in FIG. 10A including R groups. The R groups are defined in FIG. 10B and growth inhibition for the specific composition depicted in FIG. 10B are shown in FIG. 10C. […] Similarly, FIG. 11 includes the general structure in FIG. 1A including R groups. The R groups are defined in FIG. 1B and growth inhibition for the specific composition depicted in FIG. 10B are shown in FIG. 1C. […] FIG. 11A is a structure of the modified FK228 analogues and the side chain functional groups of the structure in FIG. 11A is shown in FIG. 11B. FIG. 11C is a graph of the activity as a function of side chain seen in FIG. 11B.

K562 cells = assay: Cell viability of K562 cells treated for γ-globin expression study; assay type: cell-based; conditions: about 48 hours, about 0.3 μM
Experimental: The synthesized modified FK228 analogues of the present invention were assessed to examine their capability to induce γ-globin expression. K562 cells were treated with the synthesized modified FK228 analogues at various concentrations (e.g., between about 0.01 nM and about 10 μM) for about 48 hours and expression of γ-globin was determined by real-time PCR as well as checking cell viability.

SMILES | GI50 (prostate cancer cells) [nM] | cytotoxicity on a variety of cancer cells [1] | cell viability (K562 cells)
CC(C)[C@H]1NC(=O)C[C@@H]2NC(=O)[C@H](Cc3ccccc3)NC(=O)[C@H](Cc3ccccc3)NC(=O)[C@@H](CSSCCNC2=O)NC1=O [JMA26] ([dV][dC]FFD-Cysteamide; disulfide 2-C; lactam N-5) | 460 | high cytotoxicity | –
CC(C)[C@H]1NC(=O)C[C@@H]2NC(=O)[C@H](Cc3cccc4ccccc34)NC(=O)[C@H](Cc3cccc4ccccc34)NC(=O)[C@@H](CSSCCNC2=O)NC1=O [JMA47] ([dV][dC][1Nal][1Nal]D-Cysteamide; disulfide 2-C; lactam N-5) | 47 | – | –
CC(/C=C/C(=O)NO)=C\[C@@H](C)C(=O)c1ccc(N(C)C)cc1 [TSA, Trichostatin A] | – | – | 30-40%

More lines, main results first:

GI50 (prostate cancer cells) [nM] | SMILES | cytotoxicity on a variety of cancer cells [1] | cell viability (K562 cells)
33 | CC(C)[C@H]1NC(=O)C[C@@H]2NC(=O)[C@H](Cc3ccc4ccccc4c3)NC(=O)[C@H](Cc3ccc4ccccc4c3)NC(=O)[C@@H](CSSCCNC2=O)NC1=O [JMA33] ([dV][dC][2Nal][2Nal]D-Cysteamide; disulfide 2-C; lactam N-5) | – | –
170 | CC(C)[C@H]1NC(=O)C[C@@H]2NC(=O)[C@H](Cc3ccccc3)NC(=O)[C@H](Cc3ccc4ccccc4c3)NC(=O)[C@@H](CSSCCNC2=O)NC1=O [JMA46] ([dV][dC][2Nal]FD-Cysteamide; disulfide 2-C; lactam N-5) | – | –
